This note sets out measurements from ChEMBL document CHEMBL1759920, “C20-trifluoro-5-oxo-ETE: a metabolically stable 5-oxo-ETE derivative” (Bioorg Med Chem Lett, 2011).

Structures are written as SMILES. The source made the active and inactive calls. The rule behind the calls is not given here.

In experiment [1] the test system is Neutrophil. As to the kind of experiment: Induction of intracellular calcium level in indo-1-labeled human neutrophils cells assessed as calcium mobilization. Type of experiment: functional, cell-based. For orientation: Calcium assays in cells follow changes in intracellular calcium, usually with a dye or a luminescent sensor.
Experiment [2] has as its target T1, Oxoeicosanoid receptor 1 (Homo sapiens, UniProt Q8TDS5). As to the kind of experiment: Desensitization of 5-oxo-ETE receptor in indo-1-labeled human neutrophils assessed as inhibition of 5-oxo-ETE-induced calcium mobilization. It counts as functional.
Experiment [3] relates to Neutrophil. As to the kind of experiment: Induction of intracellular calcium level in indo-1-labeled human neutrophils cells assessed as calcium mobilization relative to 5-oxo-ETE. Type of experiment: functional.
In experiment [4] the target is T1, Oxoeicosanoid receptor 1. As to the kind of experiment: Agonist activity at 5-oxo-ETE receptor in indo-1-labeled human neutrophils assessed as stimulation intracellular calcium level at 100 nM followed by 5-oxo-ETE addition at 2.5 mins in presence of digitonin added at 3.5 mins. It counts as functional, cell-based.

T1 sequence (Q8TDS5 whole entry): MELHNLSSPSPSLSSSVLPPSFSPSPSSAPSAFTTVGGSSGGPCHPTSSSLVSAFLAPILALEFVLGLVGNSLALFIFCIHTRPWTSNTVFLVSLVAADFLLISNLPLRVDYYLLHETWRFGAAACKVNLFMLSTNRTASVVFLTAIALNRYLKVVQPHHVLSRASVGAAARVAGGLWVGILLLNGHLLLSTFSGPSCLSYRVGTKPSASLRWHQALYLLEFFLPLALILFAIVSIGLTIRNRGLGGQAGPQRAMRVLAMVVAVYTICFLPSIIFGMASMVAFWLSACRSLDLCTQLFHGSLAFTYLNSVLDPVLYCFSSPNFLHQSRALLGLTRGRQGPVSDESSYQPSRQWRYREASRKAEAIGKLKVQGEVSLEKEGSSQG

By EC50 is commonly meant the concentration at which the effect is half-maximal. The IC50 is the midpoint of a concentration-inhibition curve. On to `CCCCC/C=C\C/C=C\C/C=C\C=C\C(=O)CCCC(=O)O` [5-OXO-ETE], for which the concentration for a half-maximal effect (EC50) in experiment [1] turned out to be 4 nM. In experiment [2], the IC50 amounted to 3 nM.
For `O=C(O)CCCC(=O)/C=C/C=C\C/C=C\C/C=C\CCCCC(F)(F)F`, the Activity in experiment [3] is 50%. For the same compound, the result in experiment [4] was Active. The IC50 in experiment [2] amounted to 7.5 nM.
